# Results: ChEMBL document CHEMBL3885861, “Open TG-GATES”
# Species: Rattus norvegicus
# Experiment: Open TG-GATES - Regimen: Daily Repeat
# Assay type: toxicity, organism-based, Sprague-Dawley
# Design: regimen Daily Repeat, gender Male, age 6 weeks
# Conditions: in vivo, po, route gavage; for APTT / Bas / Eos / Fbg / Hb / Ht / Lym / MCHC / MCV / Mono / Neu / PT / Plat / RBC / Ret / WBC: tissue Blood; for KIDNEY_L / KIDNEY_R / KIDNEY_TOTAL: tissue Kidney; for LIVER: tissue Liver; for ALP / ALT / AST / CRE / DBIL / GLC / IP / K / LDH / Na / PL / RALB / TBIL / TC / TG / TP / gamma-GTP: tissue Plasma
# [1] = 0 mg/kg, 72 h, dose level Control, time 3 day
# [2] = 0 mg/kg, […], dose level Control, time 7 day
# [3] = 0 mg/kg, […], dose level Control, time 14 day
# [4] = 0 mg/kg, […], dose level Control, time 28 day
# [5] = 60 mg/kg, 72 h, dose level Low, time 3 day
# [6] = 60 mg/kg, […], dose level Low, time 7 day
# [7] = 60 mg/kg, […], dose level Low, time 14 day
# [8] = 60 mg/kg, […], dose level Low, time 28 day
structure (smiles),measurement,setting,value
O=C1NC(=O)C(c2ccccc2)(c2ccccc2)N1 [PHENYTOIN],TERMINAL_BW,[1],217.7 g
same,APTT,[1],21.2 s
same,Bas,[1],0%
same,Eos,[1],0.8%
same,Fbg,[1],301.8 mg/dL
same,Hb,[1],13.3 g/dL
same,Ht,[1],39%
same,Lym,[1],81.2%
same,MCHC,[1],34.1%
same,MCV,[1],64.2 fL
same,Mono,[1],2.4%
same,Neu,[1],15.2%
same,PT,[1],16 s
same,Plat,[1],126.3 x10_4/uL
same,RBC,[1],608.6 x10_4/ul
same,Ret,[1],7.4%
same,WBC,[1],73.8 x10_2/uL
same,KIDNEY_L,[1],1 g
same,KIDNEY_R,[1],1 g
same,KIDNEY_TOTAL,[1],1.9 g
same,LIVER,[1],10.1 g
same,ALP,[1],1688.4 IU/L
same,ALT,[1],46.8 IU/L
same,AST,[1],71 IU/L
same,CRE,[1],0.1 mg/dL
same,DBIL,[1],0 mg/dL
same,GLC,[1],192.6 mg/dL
same,IP,[1],7.6 mg/dL
same,K,[1],4.1 meq/L
same,LDH,[1],178.6 IU/L
same,Na,[1],143 meq/L
same,PL,[1],141.6 mg/dL
same,RALB,[1],3.1 g/dL
same,TBIL,[1],0.018 mg/dL
same,TC,[1],73.4 mg/dL
same,TG,[1],84 mg/dL
same,TP,[1],5.7 g/dL
same,gamma-GTP,[1],1 IU/L
same,TERMINAL_BW,[2],247 g
same,TERMINAL_BW,[3],296.2 g
same,TERMINAL_BW,[4],378.5 g
same,APTT,[2],20.8 s
same,Bas,[2],0%
same,Eos,[2],0.4%
same,Fbg,[2],300.4 mg/dL
same,Hb,[2],13.4 g/dL
same,Ht,[2],39.2%
same,Lym,[2],82.2%
same,MCHC,[2],34.2%
same,MCV,[2],62.4 fL
same,Mono,[2],2.4%
same,Neu,[2],13.6%
same,PT,[2],16 s
same,Plat,[2],125.6 x10_4/uL
same,RBC,[2],628 x10_4/ul
same,Ret,[2],5.6%
same,WBC,[2],113.7 x10_2/uL
same,APTT,[3],21.7 s
same,Bas,[3],0%
same,Eos,[3],1%
same,Fbg,[3],290.6 mg/dL
same,Hb,[3],14.1 g/dL
same,Ht,[3],40.9%
same,Lym,[3],81.4%
same,MCHC,[3],34.4%
same,MCV,[3],59.2 fL
same,Mono,[3],2.2%
same,Neu,[3],14.8%
same,PT,[3],16.5 s
same,Plat,[3],124.2 x10_4/uL
same,RBC,[3],690 x10_4/ul
same,Ret,[3],4.6%
same,WBC,[3],135.4 x10_2/uL
same,APTT,[4],23.3 s
same,Bas,[4],0%
same,Eos,[4],1%
same,Fbg,[4],307.4 mg/dL
same,Hb,[4],15.3 g/dL
same,Ht,[4],42.8%
same,Lym,[4],83.4%
same,MCHC,[4],35.7%
same,MCV,[4],58.7 fL
same,Mono,[4],1.6%
same,Neu,[4],13.4%
same,PT,[4],15.8 s
same,Plat,[4],116.4 x10_4/uL
same,RBC,[4],728.8 x10_4/ul
same,Ret,[4],3.1%
same,WBC,[4],147.1 x10_2/uL
same,KIDNEY_L,[2],1 g
same,KIDNEY_R,[2],1 g
same,KIDNEY_TOTAL,[2],2.1 g
same,KIDNEY_L,[3],1.2 g
same,KIDNEY_R,[3],1.2 g
same,KIDNEY_TOTAL,[3],2.4 g
same,KIDNEY_L,[4],1.3 g
same,KIDNEY_R,[4],1.3 g
same,KIDNEY_TOTAL,[4],2.6 g
same,LIVER,[2],11.2 g
same,LIVER,[3],12.7 g
same,LIVER,[4],15.6 g
same,ALP,[2],1443 IU/L
same,ALT,[2],34.8 IU/L
same,AST,[2],65 IU/L
same,CRE,[2],0.2 mg/dL
same,DBIL,[2],0.004 mg/dL
same,GLC,[2],197.2 mg/dL
same,IP,[2],7.7 mg/dL
same,K,[2],4.6 meq/L
same,LDH,[2],197 IU/L
same,Na,[2],141.6 meq/L
same,PL,[2],140 mg/dL
same,RALB,[2],2.9 g/dL
same,TBIL,[2],0.024 mg/dL
same,TC,[2],67.4 mg/dL
same,TG,[2],131.4 mg/dL
same,TP,[2],5.6 g/dL
same,gamma-GTP,[2],0.8 IU/L
same,ALP,[3],1493.2 IU/L
same,ALT,[3],40 IU/L
same,AST,[3],63 IU/L
same,CRE,[3],0.2 mg/dL
same,DBIL,[3],0 mg/dL
same,GLC,[3],199.4 mg/dL
same,IP,[3],7.2 mg/dL
same,K,[3],4.3 meq/L
same,LDH,[3],136.4 IU/L
same,Na,[3],141.4 meq/L
same,PL,[3],147.4 mg/dL
same,RALB,[3],3 g/dL
same,TBIL,[3],0.012 mg/dL
same,TC,[3],68.4 mg/dL
same,TG,[3],154 mg/dL
same,TP,[3],5.6 g/dL
same,gamma-GTP,[3],1.8 IU/L
same,ALP,[4],1238 IU/L
same,ALT,[4],38.8 IU/L
same,AST,[4],61.8 IU/L
same,CRE,[4],0.3 mg/dL
same,DBIL,[4],0.004 mg/dL
same,GLC,[4],189.6 mg/dL
same,IP,[4],6.3 mg/dL
same,K,[4],3.9 meq/L
same,LDH,[4],151.4 IU/L
same,Na,[4],142.4 meq/L
same,PL,[4],139.6 mg/dL
same,RALB,[4],3 g/dL
same,TBIL,[4],0.022 mg/dL
same,TC,[4],67.8 mg/dL
same,TG,[4],143.4 mg/dL
same,TP,[4],6.1 g/dL
same,gamma-GTP,[4],1.2 IU/L
same,TERMINAL_BW,[5],222.2 g
same,APTT,[5],21.7 s
same,Bas,[5],0%
same,Eos,[5],0.6%
same,Fbg,[5],311.4 mg/dL
same,Hb,[5],13 g/dL
same,Ht,[5],38.1%
same,Lym,[5],81.6%
same,MCHC,[5],34.1%
same,MCV,[5],65.7 fL
same,Mono,[5],1.4%
same,Neu,[5],15.2%
same,PT,[5],15.7 s
same,Plat,[5],130.4 x10_4/uL
same,RBC,[5],581.8 x10_4/ul
same,Ret,[5],7.7%
same,WBC,[5],82.9 x10_2/uL
same,KIDNEY_L,[5],1 g
same,KIDNEY_R,[5],1 g
same,KIDNEY_TOTAL,[5],2 g
same,LIVER,[5],10.7 g
same,ALP,[5],1528 IU/L
same,ALT,[5],38 IU/L
same,AST,[5],65.8 IU/L
same,CRE,[5],0.1 mg/dL
same,DBIL,[5],0 mg/dL
same,GLC,[5],185.4 mg/dL
same,IP,[5],7.5 mg/dL
same,K,[5],4.3 meq/L
same,LDH,[5],213.4 IU/L
same,Na,[5],143 meq/L
same,PL,[5],156 mg/dL
same,RALB,[5],3.1 g/dL
same,TBIL,[5],0.01 mg/dL
same,TC,[5],81.4 mg/dL
same,TG,[5],104.2 mg/dL
same,TP,[5],5.8 g/dL
same,gamma-GTP,[5],1.4 IU/L
same,TERMINAL_BW,[6],250.5 g
same,TERMINAL_BW,[7],308.9 g
same,TERMINAL_BW,[8],366.2 g
same,APTT,[6],22.8 s
same,Bas,[6],0%
same,Eos,[6],1%
same,Fbg,[6],314.8 mg/dL
same,Hb,[6],13.7 g/dL
same,Ht,[6],40.7%
same,Lym,[6],80%
same,MCHC,[6],33.6%
same,MCV,[6],62.6 fL
same,Mono,[6],2.6%
same,Neu,[6],15.8%
same,PT,[6],15.6 s
same,Plat,[6],124.8 x10_4/uL
same,RBC,[6],650.8 x10_4/ul
same,Ret,[6],6.1%
same,WBC,[6],113.1 x10_2/uL
same,APTT,[7],22.6 s
same,Bas,[7],0%
same,Eos,[7],0.8%
same,Fbg,[7],277.4 mg/dL
same,Hb,[7],13.9 g/dL
same,Ht,[7],40.8%
same,Lym,[7],80.6%
same,MCHC,[7],34.2%
same,MCV,[7],60.8 fL
same,Mono,[7],2.2%
same,Neu,[7],15.6%
same,PT,[7],16.2 s
same,Plat,[7],104.4 x10_4/uL
same,RBC,[7],670.4 x10_4/ul
same,Ret,[7],5%
same,WBC,[7],136.7 x10_2/uL
same,APTT,[8],22.8 s
same,Bas,[8],0%
same,Eos,[8],0.8%
same,Fbg,[8],298.8 mg/dL
same,Hb,[8],15.5 g/dL
same,Ht,[8],43.8%
same,Lym,[8],86.8%
same,MCHC,[8],35.5%
same,MCV,[8],57.3 fL
same,Mono,[8],1.8%
same,Neu,[8],10%
same,PT,[8],16 s
same,Plat,[8],107 x10_4/uL
same,RBC,[8],764.6 x10_4/ul
same,Ret,[8],2.6%
same,WBC,[8],141.5 x10_2/uL
same,KIDNEY_L,[6],1.1 g
same,KIDNEY_R,[6],1.1 g
same,KIDNEY_TOTAL,[6],2.1 g
same,KIDNEY_L,[7],1.3 g
same,KIDNEY_R,[7],1.3 g
same,KIDNEY_TOTAL,[7],2.6 g
same,KIDNEY_L,[8],1.3 g
same,KIDNEY_R,[8],1.3 g
same,KIDNEY_TOTAL,[8],2.6 g
same,LIVER,[6],11.8 g
same,LIVER,[7],14.1 g
same,LIVER,[8],14.2 g
same,ALP,[6],1555.8 IU/L
same,ALT,[6],40.4 IU/L
same,AST,[6],64.8 IU/L
same,CRE,[6],0.2 mg/dL
same,DBIL,[6],0 mg/dL
same,GLC,[6],184.6 mg/dL
same,IP,[6],7 mg/dL
same,K,[6],4.4 meq/L
same,LDH,[6],169.2 IU/L
same,Na,[6],141.8 meq/L
same,PL,[6],148.2 mg/dL
same,RALB,[6],3 g/dL
same,TBIL,[6],0.034 mg/dL
same,TC,[6],73.6 mg/dL
same,TG,[6],108 mg/dL
same,TP,[6],5.6 g/dL
same,gamma-GTP,[6],1.2 IU/L
same,ALP,[7],1361 IU/L
same,ALT,[7],40.4 IU/L
same,AST,[7],63.2 IU/L
same,CRE,[7],0.2 mg/dL
same,DBIL,[7],0.008 mg/dL
same,GLC,[7],186.8 mg/dL
same,IP,[7],7.6 mg/dL
same,K,[7],4.2 meq/L
same,LDH,[7],176.6 IU/L
same,Na,[7],142.6 meq/L
same,PL,[7],152.4 mg/dL
same,RALB,[7],3.1 g/dL
same,TBIL,[7],0.012 mg/dL
same,TC,[7],74.2 mg/dL
same,TG,[7],129.6 mg/dL
same,TP,[7],5.5 g/dL
same,gamma-GTP,[7],1.2 IU/L
same,ALP,[8],1279.2 IU/L
same,ALT,[8],41 IU/L
same,AST,[8],64.4 IU/L
same,CRE,[8],0.2 mg/dL
same,DBIL,[8],0.004 mg/dL
same,GLC,[8],181.2 mg/dL
same,IP,[8],5.8 mg/dL
same,K,[8],3.9 meq/L
same,LDH,[8],231.2 IU/L
same,Na,[8],143.4 meq/L
same,PL,[8],131.6 mg/dL
same,RALB,[8],3.1 g/dL
same,TBIL,[8],0.028 mg/dL
same,TC,[8],66.6 mg/dL
same,TG,[8],107.4 mg/dL
same,TP,[8],6.1 g/dL
same,gamma-GTP,[8],1.4 IU/L
